Where two headings read alike, the source gives them in different places.
Tests used:
[1] = Area per molecule at the interface; type: physicochemical; conditions: 60° C., estimated by linear extrapolation
Excerpt: The area per molecule of a surfactant at the water/air interface provides information on the degree of packing and the orientation of the adsorbed surfactant molecule. While not wishing to be bound by theory, it is believed that surfactants that have small area per molecule values tend to pack more closely at the interface than those with large area per molecule values. From the surface excess concentration at surface saturation (Γmax), the area per molecule (am) of C8 /C10 oxypropyl D-gluconamide was determined and is given by:
am =1×10^16 /Nav Γmax
Γmax =-1/2·303RT(∂γ/∂log[Conc])T
NAV =6.0221×10^23 per gram mole (Avogadro's Number)
The area per molecule (am) of several surfactants were-determined and are set forth below: […]

[2] = cited from earlier work
[3] = Effectiveness of adsorption at the interface (surface excess concentration at surface saturation); type: physicochemical; conditions: 60° C., estimated by linear extrapolation
Excerpt: The surface excess concentration at surface saturation (Γmax) is defined as a measure of the effectiveness of surfactant adsorption at the water/air interface and represents the maximum value to which adsorption can be obtained. Effectiveness of adsorption is related to the interfacial area occupied by the surfactant molecule. The smaller the effective cross-sectional area of a surfactant at the interface, the greater its effectiveness of adsorption. The effectiveness of adsorption is an important factor in determining surfactant properties such as detergency, foaming, wetting or emulsification. While not wishing to be bound by theory, it is believed that surfactants that absorb effectively at the interface tend have tightly packed coherent interfacial films and often provide better surfactant benefits than those with loosely packed noncoherent films. The effectiveness of adsorption of C8 /C10 oxypropyl D-gluconarnide was determined using the Gibbs equation given as:
Γmax =-1/2.303RT(∂γ/∂log[Conc])T
(∂γ/∂log[Conc)T =-24.574971 ergs/cm^2 (which is equivalent to the
slope of a plot of γ versus log[Conc]) R=8.3 14×10^7 ergs/mol K (Gas Constant)
The surface excess concentration at surface saturation (Γmax) of various surfactants were determined and are set forth below: […]

[4] = cited from earlier work; remark: listed apart in the source
[5] = cited from earlier work; remark: listed apart in the source
[6] = Effectiveness in reducing surface tension (surface pressure at the CMC); type: physicochemical; conditions: 60° C., estimated by linear extrapolation
Excerpt: Effectiveness of a surfactant in reducing surface tension is defined as the maximum reduction in surface tension that can be obtained regardless of the bulk phase surfactant concentration.
As mentioned before, surface tension reduction depends on the replacement of water molecules at the interface by surfactant molecules, therefore the effectiveness of a surfactant in reducing interfacial surface tension should reflect the saturated concentration of surfactant at the interface relative to that in bulk liquid phase. During this process the surface tension of water steadily decreases as bulk phase surfactant concentration increases. This will continue until the concentration reaches the critical micelle concentration (CMC), above which the surface tension remains nearly unchanged and the interface is saturated with surfactant. The surface tension at the CMC is therefore very close to the minimum interfacial tension or maximum surface pressure that the system can achieve. The surface pressure at this point, cmc, is a suitable measure of the effectiveness of a surfactant in reducing surface tension and is given as:
cmc =20+2.3 nRT(Γmax) log[CMC/C20 ]
n=1 which represents the number of ions whose surface concentration changes with the change in liquid phase surfactant concentration.
R=8.314×107 ergs/mol K (Gas Constant)
Γmax =-1/2·303RT(∂γ/∂log [Conc])T=3.85×10^-10 mole/cm^2
CMC/C20 =is the ratio of the critical micelle concentration to the bulk phase surfactant concentration necessary to reduce the surface tension of water by 20 dyn/cm.
The effectiveness of various surfactants in reducing surface tension ( cmc) were determined and are set forth below: […]

Water solubility = type: physicochemical; conditions: in words
[7] = Critical micelle concentration (Wilhelmy plate method); type: physicochemical; conditions: 60° C.
Description: The critical micelle concentration (CMC) is defined as the concentration at which a surfactant forms micelles in aqueous solution. Micellization is the preferred interfacial phenomena, since certain surfactant benefits such as detergency (the solubilization of soils), foaming, wetting or emulsification depend on the formation of these aggregates in solution.
The CMC value of C8 /C10 oxypropyl D-gluconamide was determined by plotting surface tension as a function of log(concentration) and extrapolating linear points to obtain an intersection point. The concentration at this point was taken as the CMC. The technique used was the Wilhelmy plate method and the instrument used was a Lauda Auto-Tensiometer. While wishing not to be bound to theory, it is believed that surfactants with low CMC values form micelles more readily at lower concentrations than those with high CMC values.
The critical micelle concentration (CMC) value of C8 /C10 oxypropyl D-gluconamide (molecular weight=375.02 g/mole, 65.9% C8, 34.1% C10) was determined and is set forth below: […]

[8] = Krafft point of aqueous dispersion of aldonamide; type: physicochemical; conditions: for Krafft Point (0.1%): 0.1% in water by weight; for Krafft Point (1.0%): 1.0% in water by weight
Description: The temperature at and above which surfactants begin to form micelles instead of precipitates is referred to as the Krafft point (Tk) and at this temperature the solubility of a surfactant becomes equal to its CMC (numerical value at which micelles are formed).
The Krafft point was measured by preparing 650 ml of a 0.1% or 1.0% dispersion of aldonamide in water by weight. If the surfactant was soluble at room temperature, the solution was slowly cooled to 0° C. […] (less than zero). If it precipitated out of solution, the temperature at which precipitation occurs was taken as the Krafft point.
If the surfactant was insoluble at :room temperature, the dispersion was slowly heated until the solution became homogeneous. It was then slowly cooled until precipitation occurred. The temperature at which the surfactant precipitates out of solution upon cooling was taken as the Krafft point.

Ross-Miles foam height [9] = type: physicochemical; parameters: key: X: low water solubility. foam height cannot be measured; conditions: Examples 82-83
Description: (§1) Since most of the foaming data on surfactants is typically obtained by the Ross-Miles Foam Height Assay (Ross, J. and Miles, G. D. Am Soc. for Testing Material Method D1173-63 Philadelphia, Pa. (1953); Oil & Soap (1958) 62:1260) the foaming ability of these surfactants were acquired using this method.
(§2) In the Ross-Miles method, 200 mL of a surfactant solution contained in a pipette of specified dimensions with a 2.9-mm-i.d. orifice is allowed to fall 90 cm onto 50 mL of the same solution contained in a cylindrical vessel maintained at a given temperature by means of a water jacket. The height of the foam produced in the cylindrical vessel is read immediately after all the solution has run out of the pipette and then again after a given amount of time.
(§3) Using this method, the foam production (initial foam height in mm) and foam stability (final foam height after 10 minutes in mm) were measured at 0.1% aldonamide concentration, 40° C. and 0 ppm (parts per million) hardness. Aldonamides that were not soluble at 40° C. were measured at about 5°-10° C. above their Krafft points.

Ross-Miles foam height [10] = type: physicochemical; parameters: key: X: low water solubility, foam height cannot be measured; conditions: Example 84; for Foam Height Final (symbol): after 10 minutes
Description: as §1, §2, §3

[11] = listed as Dodecyl D-Gluconamide
[12] = listed as dodecyl D-gluconamide

Row | area per molecule (am) [1] [Å^2] | surface excess concentration at surface saturation (Γmax) [3] | surface pressure at the CMC (cmc) [6] [dyn/cm] | SMILES | surface excess concentration at surface saturation (Γmax) ([2]; 25° C.) | surface excess concentration at surface saturation (Γmax) ([2]; 40° C.) | area per molecule (am) ([4]; 25° C.) [Å^2] | area per molecule (am) ([4]; 40° C.) [Å^2] | surface pressure at the CMC (cmc) ([5]; 25° C.) [dyn/cm] | surface pressure at the CMC (cmc) ([5]; 40° C.) [dyn/cm] | also measured
1 | 69.0 | 2.40 × 10^-10 mole/cm^2 | 36.3 | CCCCCCCCCCCCOCCOCCOCCOCCOCCOCCOCCOCCO [Dodecylocta(oxyethylene) Ether] | 2.52 × 10^-10 mole/cm^2 | 2.46 × 10^-10 mole/cm^2 | 66.0 | 67.4 | 37.2 | 37.3 | 
2 | 52.3 | 3.16 × 10^-10 mole/cm^2 | 40.7 | CCCCCCCCCCCCOCCOCCOCCOCCOCCO [Dodecylpenta(oxyethylene) Ether] | 3.31 × 10^-10 mole/cm^2 | 3.28 × 10^-10 mole/cm^2 | 50.1 | 50.6 | 41.5 | 41.2 | 
3 | 53.3 | 3.01 × 10^-10 mole/cm^2 | 40.7 | CCCCCCCCCCCCOCCOCCOCCOCCO [Dodecyltetra(oxyethylene) Ether] | 3.63 × 10^-10 mole/cm^2 | 3.41 × 10^-10 mole/cm^2 | 45.7 | 48.7 | 43.4 | 42.0 | 
4 | 45.4 | 3.83 × 10^-10 mole/cm^2 | 41.4 | CCCCCCCCCCCCOCCOCCOCCO [Dodecyltri(oxyethylene) Ether] | 3.98 × 10^-10 mole/cm^2 | 3.90 × 10^-10 mole/cm^2 | 41.7 | 42.5 | 44.1 | 43.1 | 
5 |  |  |  | CCCCCCCCCCCCNC(=O)[C@H](O)[C@@H](O)[C@H](O)[C@H](O)CO [H, Dodecyl D-Gluconamide] |  |  |  |  |  |  | water solubility (Water solubility; [11]): Insoluble; water solubility (Water solubility; [12]): insoluble in water; CMC / micelle formation (in words) [7, 11]: None; CMC / micelle formation (in words) [7, 12]: can not form micelles; Krafft Point (0.1%) [8]: 91 °C; Foam Height Final (symbol) (Ross-Miles foam height [9]; after 10 minutes): X; Foam Height Initial (symbol) (Ross-Miles foam height [9]; initial): X
6 |  |  |  | CCCCCCCCCCCCNC(=O)[C@H](O)[C@H](O)[C@@H](O)[C@@H](O)CO [L, C12 L-Mannonamide] |  |  |  |  |  |  | water solubility (Water solubility): Insoluble; Krafft Point (0.1%) [8]: > 100 °C
7 |  |  |  | CCCCCCCCCCCCCCCNC(=O)[C@H](O)[C@@H](O)[C@H](O[C@@H]1O[C@H](CO)[C@H](O)[C@H](O)[C@H]1O)[C@H](O)CO [SS, C15 D-Lactobionamide] |  |  |  |  |  |  | Krafft Point (1.0%) [8]: 84 °C; Foam Height Final (symbol) (Ross-Miles foam height [10]): X; Foam Height Initial (symbol) (Ross-Miles foam height [10]): X
8 |  |  |  | CCCCCCCCCCCCCCCCCCNC(=O)[C@H](O)[C@@H](O)[C@H](O[C@@H]1O[C@H](CO)[C@H](O)[C@H](O)[C@H]1O)[C@H](O)CO [UU, C18 D-Lactobionamide] |  |  |  |  |  |  | Krafft Point (1.0%) [8]: 82 °C; Foam Height Final (symbol) (Ross-Miles foam height [10]): X; Foam Height Initial (symbol) (Ross-Miles foam height [10]): X

Row | SMILES | area per molecule (am) [1] [Å^2] | surface excess concentration at surface saturation (Γmax) [3] | surface pressure at the CMC (cmc) [6] [dyn/cm] | surface excess concentration at surface saturation (Γmax) ([2]; 25° C.) | surface excess concentration at surface saturation (Γmax) ([2]; 40° C.) | area per molecule (am) ([4]; 25° C.) [Å^2] | area per molecule (am) ([4]; 40° C.) [Å^2] | surface pressure at the CMC (cmc) ([5]; 25° C.) [dyn/cm] | surface pressure at the CMC (cmc) ([5]; 40° C.) [dyn/cm] | also measured
9 | CCCCCCCCCCCCOCCOCCOCCOCCOCCOCCOCCO [Dodecylhepta(oxyethylene) Ether] | 61.0 | 2.71 × 10^-10 mole/cm^2 | 36.8 | 2.90 × 10^-10 mole/cm^2 | 2.77 × 10^-10 mole/cm^2 | 57.3 | 59.9 | 38.3 | 38.5 | 

From patent US5521293A (Lever Brothers Company, Division of Conopco, Inc., priority 1995, dated 1996)
